Experimental data taken from patent US7427485B2, “Method for classification of anti-psychotic drugs” (The Rockefeller University, priority 2001, dated 2008).
Where two headings read alike, the source gives them in different places.

Key:
DARPP-32 = settings: chronic administration in rats; cited from earlier work
Thr202- and Tyr204- ERK1 = experiment: In vivo phosphorylation of ERK1 in mouse striatum (immunoblot, phosphorylation state-specific antibodies); settings: for Thr202- and Tyr204- ERK1 phosphorylation level (mean): eticlopride 0.5, haloperidol 0.2, clozapine 5 mg/kg i.p., time 0 control = 100; for levels of phospho-ERK1 (in words): haloperidol 0.2 mg/kg, eticlopride 0.5 mg/kg
Thr34-DARPP-32 = experiment: In vivo phosphorylation of DARPP-32 at Thr34 in mouse striatum (immunoblot, phosphorylation state-specific antibodies); set-up: species or system mice; settings: for Thr34-DARPP-32 phosphorylation level (mean): eticlopride 0.5, haloperidol 0.2, clozapine 5 mg/kg i.p., time 0 control = 100
Method: (§1) Male C57/BL6 mice (groups of six) were administered intraperitoneal injections of one of three anti-psychotic compounds, haloperidol (a typical anti-psychotic), clozapine (an atypical anti-psychotic), or eticlopride (a selective dopamine D2 receptor antagonist). All animals were sacrificed by decapitation at 15, 30, or 60 minutes post-injection. After decapitation, the heads were immediately immersed in liquid nitrogen for 6 seconds to inactivate all protein activity. The brains were then dissected on an ice-cold surface and the striata removed and sonicated in 750 μl of 1% SDS, and then boiled for 10 minutes. Levels of phosphorylated DARPP-32, CREB, and ERK1 and ERK2 were then determined.
(§2) In order to determine levels of phosphoproteins in brain tissue, aliquots of the brain homogenate were loaded onto 10% polyacrylamide gels and the proteins separated by SDS/PAGE analysis, and then transferred to poly(vinylidene difluoride) membranes as described by Towbin and colleagues (Towbin, H. et al. 1979. Proc. Natl. Acad. Sci. USA 76:4350-4354). The effect of the drugs on the phosphorylation of DARPP-32 at two sites (Thr34 and Thr75), ERK1 at two sites (Thr202 and Tyr204), ERK2 at two sites (Thr185 and Tyr187), and CREB at one site (Ser133) was assessed using phosphorylation state-specific antibodies according to standard methods. Anti-phospho-ERK1 and anti-phospho-ERK2 antibodies were obtained from Cell Signaling Technology (Beverly, Mass.). Anti-phospho-CREB antibody was obtained from Upstate Biotechnology (Lake Placid, N.Y.). Anti-phospho-DARPP32 antibodies were used that had been produced according to the methods disclosed in U.S. patent application Ser. No. 09/419,379, by Bibb et al., entitled “Methods of Identifying Agents That Regulate Phosphorylation/Dephosphorylation in Dopamine Signaling,” filed Oct. 15, 1999, and Ser. No. 09/687,959, by Bibb et al., entitled “Methods of Identifying Agents That Regulate Phosphorylation/Dephosphorylation in Dopamine Signaling,” filed Oct. 13, 2000, (each of which is incorporated herein by reference in its entirety). These methods were used to produce phosphorylation state-specific antibodies having specificity for Thr34-phosphorylated and Thr75-phosphorylated DARPP-32.

Ser133-CREB = experiment: In vivo phosphorylation of CREB in mouse striatum (immunoblot, phosphorylation state-specific antibodies); set-up: species or system mice; settings: for Ser133-CREB phosphorylation level (mean): eticlopride 0.5, haloperidol 0.2, clozapine 5 mg/kg i.p., time 0 control = 100; for levels of phospho-CREB (in words): haloperidol 0.2 mg/kg, eticlopride 0.5 mg/kg
Method: as §1, §2

Thr75-DARPP-32 = experiment: In vivo phosphorylation of DARPP-32 at Thr75 in mouse striatum (immunoblot, phosphorylation state-specific antibodies); settings: for Thr75-DARPP-32 phosphorylation level (mean): eticlopride 0.5, haloperidol 0.2, clozapine 5 mg/kg i.p., time 0 control = 100
Thr185- and Tyr187- ERK2 = experiment: In vivo phosphorylation of ERK2 in mouse striatum (immunoblot, phosphorylation state-specific antibodies); set-up: species or system mice; settings: for Thr185- and Tyr187- ERK2 phosphorylation level (mean): eticlopride 0.5, haloperidol 0.2, clozapine 5 mg/kg i.p., time 0 control = 100; for levels of phospho-ERK2 (in words): haloperidol 0.2 mg/kg, eticlopride 0.5 mg/kg
Method: as §1, §2

c-fos = settings: dorsal striatum; cited from earlier work
DOI-induced behaviors = settings: rats; 30 min pretreatment i.p.; fixed dose of DOI 3.0 mg/kg; cited from earlier work

N[C@@H]1C[C@H]1c1ccccc1 (racemic) [tranylcypromine]
frontal cortex levels of DARPP-32 immunoreactivity (DARPP-32): significant increases

CN1CCN(C2=Nc3cc(Cl)ccc3Nc3ccccc32)CC1 [Clozapine, clozapine]
Thr202- and Tyr204- ERK1 phosphorylation level (mean) (Thr202- and Tyr204- ERK1; 15 min post-injection): 90
Thr202- and Tyr204- ERK1 phosphorylation level (mean) (Thr202- and Tyr204- ERK1; 30 min post-injection): 75
Thr202- and Tyr204- ERK1 phosphorylation level (mean) (Thr202- and Tyr204- ERK1; 60 min post-injection): 33
Thr34-DARPP-32 phosphorylation level (mean) (Thr34-DARPP-32; 15 min post-injection): 188
Thr34-DARPP-32 phosphorylation level (mean) (Thr34-DARPP-32; 30 min post-injection): 209
Thr34-DARPP-32 phosphorylation level (mean) (Thr34-DARPP-32; 60 min post-injection): 222
Ser133-CREB phosphorylation level (mean) (Ser133-CREB; 15 min post-injection): 51
Ser133-CREB phosphorylation level (mean) (Ser133-CREB; 30 min post-injection): 62
Ser133-CREB phosphorylation level (mean) (Ser133-CREB; 60 min post-injection): 57
Thr75-DARPP-32 phosphorylation level (mean) (Thr75-DARPP-32; 15 min post-injection): 179
Thr75-DARPP-32 phosphorylation level (mean) (Thr75-DARPP-32; 30 min post-injection): 216
Thr75-DARPP-32 phosphorylation level (mean) (Thr75-DARPP-32; 60 min post-injection): 203
Thr185- and Tyr187- ERK2 phosphorylation level (mean) (Thr185- and Tyr187- ERK2; 15 min post-injection): 62
Thr185- and Tyr187- ERK2 phosphorylation level (mean) (Thr185- and Tyr187- ERK2; 30 min post-injection): 41
Thr185- and Tyr187- ERK2 phosphorylation level (mean) (Thr185- and Tyr187- ERK2; 60 min post-injection): 15

CCc1cc(Cl)c(OC)c(C(=O)NC[C@@H]2CCCN2CC)c1O [Eticlopride, eticlopride]
Thr202- and Tyr204- ERK1 phosphorylation level (mean) (Thr202- and Tyr204- ERK1; 15 min post-injection): 223
Thr202- and Tyr204- ERK1 phosphorylation level (mean) (Thr202- and Tyr204- ERK1; 30 min post-injection): 207
Thr202- and Tyr204- ERK1 phosphorylation level (mean) (Thr202- and Tyr204- ERK1; 60 min post-injection): 170
levels of phospho-ERK1 (in words) (Thr202- and Tyr204- ERK1): significant increases
Thr34-DARPP-32 phosphorylation level (mean) (Thr34-DARPP-32; 15 min post-injection): 192
Thr34-DARPP-32 phosphorylation level (mean) (Thr34-DARPP-32; 30 min post-injection): 226
Thr34-DARPP-32 phosphorylation level (mean) (Thr34-DARPP-32; 60 min post-injection): 190
time after administration at which phospho-CREB levels returned to control levels (Ser133-CREB): 60 min
Ser133-CREB phosphorylation level (mean) (Ser133-CREB; 15 min post-injection): 167
Ser133-CREB phosphorylation level (mean) (Ser133-CREB; 30 min post-injection): 146
Ser133-CREB phosphorylation level (mean) (Ser133-CREB; 60 min post-injection): 123
levels of phospho-CREB (in words) (Ser133-CREB): significant increases
Thr75-DARPP-32 phosphorylation level (mean) (Thr75-DARPP-32; 15 min post-injection): 80
Thr75-DARPP-32 phosphorylation level (mean) (Thr75-DARPP-32; 30 min post-injection): 70
Thr75-DARPP-32 phosphorylation level (mean) (Thr75-DARPP-32; 60 min post-injection): 80
DARPP-32 phosphorylation at Thr75 (in words) (Thr75-DARPP-32; at 30 minutes): decreased
time after administration at which phospho-ERK2 levels returned to control levels (Thr185- and Tyr187- ERK2): 30 min
Thr185- and Tyr187- ERK2 phosphorylation level (mean) (Thr185- and Tyr187- ERK2; 15 min post-injection): 132
Thr185- and Tyr187- ERK2 phosphorylation level (mean) (Thr185- and Tyr187- ERK2; 30 min post-injection): 97
Thr185- and Tyr187- ERK2 phosphorylation level (mean) (Thr185- and Tyr187- ERK2; 60 min post-injection): 96
levels of phospho-ERK2 (in words) (Thr185- and Tyr187- ERK2): significant increases

O=C(CCCN1CCC(O)(c2ccc(Cl)cc2)CC1)c1ccc(F)cc1 [Haloperidol, haloperidol]
Thr202- and Tyr204- ERK1 phosphorylation level (mean) (Thr202- and Tyr204- ERK1; 15 min post-injection): 231
Thr202- and Tyr204- ERK1 phosphorylation level (mean) (Thr202- and Tyr204- ERK1; 30 min post-injection): 187
Thr202- and Tyr204- ERK1 phosphorylation level (mean) (Thr202- and Tyr204- ERK1; 60 min post-injection): 169
levels of phospho-ERK1 (in words) (Thr202- and Tyr204- ERK1): significant increases
Thr34-DARPP-32 phosphorylation level (mean) (Thr34-DARPP-32; 15 min post-injection): 195
Thr34-DARPP-32 phosphorylation level (mean) (Thr34-DARPP-32; 30 min post-injection): 196
Thr34-DARPP-32 phosphorylation level (mean) (Thr34-DARPP-32; 60 min post-injection): 155
Thr34 phosphorylation (in words) (Thr34-DARPP-32; at 60 minutes): no statistical difference from controls
Thr34 phosphorylation (in words) (Thr34-DARPP-32; for up to 30 minutes): increased
frontal cortex levels of DARPP-32 immunoreactivity (DARPP-32): without effects
time after administration at which phospho-CREB levels returned to control levels (Ser133-CREB): 30 min
Ser133-CREB phosphorylation level (mean) (Ser133-CREB; 15 min post-injection): 148
Ser133-CREB phosphorylation level (mean) (Ser133-CREB; 30 min post-injection): 131
Ser133-CREB phosphorylation level (mean) (Ser133-CREB; 60 min post-injection): 114
levels of phospho-CREB (in words) (Ser133-CREB): significant increases
inducing c-fos expression, as compared to clozapine (c-fos): much more effective
effect on the three behavioral effects of DOI (head-and-body shakes, forepaw tapping, skin-jerks) (DOI-induced behaviors): antagonize
DARPP-32 phosphorylation at Thr75 (in words) (Thr75-DARPP-32): without effect
Thr75-DARPP-32 phosphorylation level (mean) (Thr75-DARPP-32; 15 min post-injection): 133
Thr75-DARPP-32 phosphorylation level (mean) (Thr75-DARPP-32; 30 min post-injection): 144
Thr75-DARPP-32 phosphorylation level (mean) (Thr75-DARPP-32; 60 min post-injection): 138
time after administration at which phospho-ERK2 levels returned to control levels (Thr185- and Tyr187- ERK2): 30 min
Thr185- and Tyr187- ERK2 phosphorylation level (mean) (Thr185- and Tyr187- ERK2; 15 min post-injection): 151
Thr185- and Tyr187- ERK2 phosphorylation level (mean) (Thr185- and Tyr187- ERK2; 30 min post-injection): 114
Thr185- and Tyr187- ERK2 phosphorylation level (mean) (Thr185- and Tyr187- ERK2; 60 min post-injection): 107
levels of phospho-ERK2 (in words) (Thr185- and Tyr187- ERK2): significant increases

COc1cccc([C@H](O)C2CCN(CCc3ccc(F)cc3)CC2)c1OC [M100907]
effect on the three behavioral effects of DOI (head-and-body shakes, forepaw tapping, skin-jerks) (DOI-induced behaviors): antagonize

CCNC(=O)N1CCN(CCCC(c2ccc(F)cc2)c2ccc(F)cc2)CC1 [amperozide]
effect on the three behavioral effects of DOI (head-and-body shakes, forepaw tapping, skin-jerks) (DOI-induced behaviors): antagonize

COc1cc(C(C)=O)ccc1OCCCN1CCC(c2noc3cc(F)ccc23)CC1 [iloperidone]
effect on the three behavioral effects of DOI (head-and-body shakes, forepaw tapping, skin-jerks) (DOI-induced behaviors): antagonize

CN(C)CCCN1c2ccccc2CCc2ccccc21 [imipramine]
frontal cortex levels of DARPP-32 immunoreactivity (DARPP-32): significant increases

CN1CC[C@]23c4c5ccc(O)c4O[C@H]2[C@@H](O)C=C[C@H]3[C@H]1C5 [morphine]
frontal cortex levels of DARPP-32 immunoreactivity (DARPP-32): without effects

CCN1CCC[C@H]1CNC(=O)c1c(OC)ccc(Br)c1OC [remoxipride]
effect on the three behavioral effects of DOI (head-and-body shakes, forepaw tapping, skin-jerks) (DOI-induced behaviors): antagonize

Cc1nc2n(c(=O)c1CCN1CCC(c3noc4cc(F)ccc34)CC1)CCCC2 [risperidone]
effect on the three behavioral effects of DOI (head-and-body shakes, forepaw tapping, skin-jerks) (DOI-induced behaviors): antagonize

Cc1nc2sccn2c(=O)c1CCN1CCC(=C(c2ccc(F)cc2)c2ccc(F)cc2)CC1 [ritanserin]
effect on the three behavioral effects of DOI (head-and-body shakes, forepaw tapping, skin-jerks) (DOI-induced behaviors): antagonize

N alpha MeArg-Lys-Pro-Trp-Tle-Leu [NT1]
effect on the three behavioral effects of DOI (head-and-body shakes, forepaw tapping, skin-jerks) (DOI-induced behaviors): antagonize
